Assay results reported in PMC5160999 (ChemMedChem, 2016).
One block for each molecule: values may come before it.

Tests used:
B. subtilis = assay: Synergy/antagonism two-drug combination assay, B. subtilis; format: cell-based
S. aureus = assay: Synergy/antagonism two-drug combination assay, S. aureus; format: cell-based
P. aeruginosa = assay: Synergy/antagonism two-drug combination assay, P. aeruginosa; format: cell-based
K. pneumoniae = assay: Synergy/antagonism two-drug combination assay, K. pneumoniae; format: cell-based
E. coli = assay: Synergy/antagonism two-drug combination assay, E. coli; format: cell-based
A. baumannii = assay: Synergy/antagonism two-drug combination assay, A. baumannii; format: cell-based
EcUPPP = EcUPPP (Escherichia coli, UniProt P60932); assay: EcUPPP inhibition, malachite-green assay; format: biochemical, E. coli; conditions: read-out: IC50 EuUPPP
EcUPPP, sequence (P60932 whole entry): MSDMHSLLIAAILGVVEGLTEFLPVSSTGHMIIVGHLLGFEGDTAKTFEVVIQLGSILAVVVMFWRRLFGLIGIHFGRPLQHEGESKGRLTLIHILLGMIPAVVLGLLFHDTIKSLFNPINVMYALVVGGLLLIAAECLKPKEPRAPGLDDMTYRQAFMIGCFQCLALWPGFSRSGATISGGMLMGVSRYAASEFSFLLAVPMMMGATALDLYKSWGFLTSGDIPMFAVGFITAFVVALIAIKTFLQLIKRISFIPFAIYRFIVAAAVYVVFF

Molecule: COc1cc(Cc2cnc(N)nc2N)cc(OC)c1OC [Trimethoprim]
- FIC (B. subtilis; B. subtilis, combination of 32 with Trimethoprim): 0.77 ± 0.18
- MIC (B. subtilis; Bacillus subtilis): 0.5 µg/mL
- FIC (S. aureus; S. aureus, combination of 32 with Trimethoprim): 0.69 ± 0.32
- MIC (S. aureus; Staphylococcus aureus): 15 µg/mL

Molecule: CN[C@H](CC(C)C)C(=O)N[C@H]1C(=O)N[C@@H](CC(N)=O)C(=O)N[C@H]2C(=O)N[C@H]3C(=O)N[C@H](C(=O)N[C@H](C(=O)O)c4cc(O)cc(O)c4-c4cc3ccc4O)[C@H](O)c3ccc(c(Cl)c3)Oc3cc2cc(c3O[C@@H]2O[C@H](CO)[C@@H](O)[C@H](O)[C@H]2O[C@H]2C[C@](C)(N)[C@H](O)[C@H](C)O2)Oc2ccc(cc2Cl)[C@H]1O [Vancomycin]
- FIC (B. subtilis; B. subtilis, combination of 32 with Vancomycin): 0.33 ± 0.058
- MIC (B. subtilis; Bacillus subtilis): 0.5 µg/mL
- FIC (S. aureus; S. aureus, combination of 32 with Vancomycin): 0.19 ± 0.019
- MIC (S. aureus; Staphylococcus aureus): 1.5 µg/mL

Molecule: O=CN(O)CCCP(=O)(O)O [fosmidomycin]
- FIC (P. aeruginosa; P. aeruginosa, combination of 11 with fosmidomycin): 0.18 ± 0.066
- MIC (P. aeruginosa; Pseudomonas aeruginosa): 3 µg/mL
- FIC (K. pneumoniae; K. pneumoniae, combination of 11 with fosmidomycin): 0.12 ± 0.014
- MIC (K. pneumoniae; Klebsiella pneumoniae): 5 µg/mL
- FIC (B. subtilis; B. subtilis, combination of 32 with Fosmidomycin): 0.25 ± 0.043
- MIC (B. subtilis; Bacillus subtilis): 5 µg/mL
- FIC (E. coli; E. coli, combination of 11 with fosmidomycin): 0.14 ± 0.13
- MIC (E. coli; Escherichia coli): 5 µg/mL
- FIC (A. baumannii; A. baumannii, combination of 11 with fosmidomycin): 0.27 ± 0.057
- MIC (A. baumannii; Acinetobacter baumannii): 5 µg/mL

Molecule: Cc1cc(NS(=O)(=O)c2ccc(N)cc2)no1 [Sulfamethoxazole]
- FIC (B. subtilis; B. subtilis, combination of 32 with Sulfamethoxazole): 0.87 ± 0.23
- MIC (B. subtilis; Bacillus subtilis): 200 µg/mL
- FIC (S. aureus; S. aureus, combination of 32 with Sulfamethoxazole): 0.75 ± 0.20
- MIC (S. aureus; Staphylococcus aureus): 200 µg/mL

Molecule: CN(C)[C@@H]1C(O)=C(C(N)=O)C(=O)[C@@]2(O)C(O)=C3C(=O)c4c(O)cccc4[C@@](C)(O)[C@H]3C[C@@H]12 [Tetracycline]
- FIC (B. subtilis; B. subtilis, combination of 32 with Tetracycline): 0.82 ± 0.21
- MIC (B. subtilis; Bacillus subtilis): 5 µg/mL
- FIC (S. aureus; S. aureus, combination of 32 with Tetracycline): 0.83 ± 0.38
- MIC (S. aureus; Staphylococcus aureus): 0.5 µg/mL

Molecule: Bacitracin
- FIC (B. subtilis; B. subtilis, combination of 32 with Bacitracin): 0.12 ± 0.028
- MIC (B. subtilis; B. subtilis, drug acting alone): 200 µg/mL
- FIC (S. aureus; S. aureus, combination of 32 with Bacitracin): 0.21 ± 0.039
- MIC (S. aureus; S. aureus, drug acting alone): 200 µg/mL
- IC50 (EcUPPP): 32 µM

Further lines, with some results ahead:

- MIC (B. subtilis; Bacillus subtilis): 200 µg/mL
- MIC (S. aureus; Staphylococcus aureus): 200 µg/mL
Molecule: C[C@@H]1O[C@@H]1P(=O)(O)O [Fosfomycin]
- FIC (B. subtilis; B. subtilis, combination of 32 with Fosfomycin): 0.21 ± 0.025
- FIC (S. aureus; S. aureus, combination of 32 with Fosfomycin): 0.13 ± 0.022

- MIC (B. subtilis; Bacillus subtilis): 2.5 µg/mL
- MIC (S. aureus; Staphylococcus aureus): 2 µg/mL
Molecule: CO/N=C(\C(=O)N[C@@H]1C(=O)N2C(C(=O)O)=C(COC(C)=O)CS[C@H]12)c1csc(N)n1 [Cefotaxime]
- FIC (B. subtilis; B. subtilis, combination of 32 with Cefotaxime): 0.30 ± 0.044
- FIC (S. aureus; S. aureus, combination of 32 with Cefotaxime): 0.21 ± 0.048

- MIC (B. subtilis; Bacillus subtilis): 0.5 µg/mL
- MIC (S. aureus; Staphylococcus aureus): 5 µg/mL
Molecule: O=C(N[C@H](CO)[C@H](O)c1ccc([N+](=O)[O-])cc1)C(Cl)Cl [Chloramphenicol]
- FIC (B. subtilis; B. subtilis, combination of 32 with Chloramphenicol): 0.55 ± 0.13
- FIC (S. aureus; S. aureus, combination of 32 with Chloramphenicol): 0.71 ± 0.11

- MIC (B. subtilis; Bacillus subtilis): 5 µg/mL
- MIC (S. aureus; Staphylococcus aureus): 15 µg/mL
Molecule: CC1(C)S[C@@H]2[C@H](NC(=O)C(C(=O)O)c3ccccc3)C(=O)N2[C@H]1C(=O)O (stereo partly drawn) [Carbenicillin]
- FIC (B. subtilis; B. subtilis, combination of 32 with Carbenicillin): 0.25 ± 0.043
- FIC (S. aureus; S. aureus, combination of 32 with Carbenicillin): 0.27 ± 0.015

- MIC (S. aureus; Staphylococcus aureus): 40 µg/mL
Molecule: CN[C@@H]1[C@H](O)[C@H](NC)[C@H]2O[C@@]3(O)C(=O)C[C@@H](C)O[C@H]3O[C@@H]2[C@H]1O [Spectinomycin]
- FIC (S. aureus; S. aureus, combination of 32 with Spectinomycin): 0.45 ± 0.091

- MIC (B. subtilis; Bacillus subtilis): 0.5 µg/mL
- MIC (S. aureus; Staphylococcus aureus): 0.5 µg/mL
Molecule: CC1(C)S[C@@H]2[C@H](NC(=O)[C@H](N)c3ccccc3)C(=O)N2[C@H]1C(=O)O [Ampicillin]
- FIC (B. subtilis; B. subtilis, combination of 32 with Ampicillin): 0.18 ± 0.041
- FIC (S. aureus; S. aureus, combination of 32 with Ampicillin): 0.30 ± 0.095

- MIC (B. subtilis; B. subtilis, drug acting alone): 1.5 µg/mL
- MIC (S. aureus; S. aureus, drug acting alone): 1.5 µg/mL
Molecule: NC[C@H]1O[C@H](O[C@H]2[C@H](O)[C@@H](O[C@H]3O[C@H](CO)[C@@H](O)[C@H](N)[C@H]3O)[C@H](N)C[C@@H]2N)[C@H](O)[C@@H](O)[C@@H]1O [Kanamycin]
- FIC (B. subtilis; B. subtilis, combination of 32 with Kanamycin): 0.61 ± 0.097
- FIC (S. aureus; S. aureus, combination of 32 with Kanamycin): 0.81 ± 0.17
